Results: patent EP1073452B1, “USE OF […] TREATING CYTOKINE MEDIATED HEPATIC INJURY” (University of Kentucky Research Foundation, priority 1998, dated 2003)

System: Male BALB/c HSD mice
Assay: Survival of mice rendered hepatotoxic by LPS/GAL treatment (model for septic shock / hepatic failure)
Type: in vivo
Procedure: Hepatic failure was induced in mice by intraperitoneal injections of a mixture of lipopolysaccharide (LPS) (100 µg/kg) and D-galactosamine (GAL) (700 mg/kg) to form LPS/GAL. LPS is a bacterial endotoxin that is a major stimulus for production of many cytokines, particularly tumor necrosis factor (TNF), thought to be involved in liver injury. GAL is an amino sugar that sensitizes hepatocytes by depleting the base uridine and thus preventing hepatic transcription, and sensitizes animals to normally innocuous amounts of endotoxin or TNF. The LPS/GAL treatment induces fulminate hepatic and multiorgan failure, and serves as a model for septic shock. The major effects of LPS/GAL are elicited by the inflammatory cytokine TNF-α. Hepatocytes sensitized to TNF-α then undergo apoptosis or programmed cell death in response to inflammatory processes.
Mice were treated with deltorphin and were subsequently rendered hepatotoxic by LPS/GAL treatment. An emulsion of deltorphin I SEQ ID NO:1 (Tyr-D-Ala-Phe-Asp-Val-Val-Gly-NH2) was prepared at a concentration of 80 µg/200 µl in sterile phosphate buffered saline (PBS). An emulsion of DADLE (Tyr-D-Ala-Gly-Phe-D-Leu-enkephalin) was also prepared at a concentration of 80 µg/200 µl in sterile PBS. Male BALB/c HSD mice were treated by intraperitoneal injections according to the following protocol. Control mice (n = 7) received only LPS/GAL (280 µl) at 6.5 h. Deltorphin I SEQ ID NO:1 treated mice (n = 15) received injections of 4 mg/kg deltorphin I SEQ ID NO:1 at 0 h, 2 h, 4 h, 6 h and 7.5 h and received an LPS/GAL injection at 6.5 h. DADLE treated mice (n = 15) received 4 mg/kg DADLE at 0 h, 2 h, 4 h, 6 h and 7.5 h and received an LPS/GAL injection at 6.5 h.
Both control and treated mice were monitored at 15 h, 20 h, 40 h and 65 h after the last injection. TABLE

[1] = n = 15, 4 mg/kg intraperitoneal at 0 h, 2 h, 4 h, 6 h and 7.5 h, LPS/GAL at 6.5 h, 15 h after the last injection
[2] = n = 15, 4 mg/kg intraperitoneal at 0 h, 2 h, 4 h, 6 h and 7.5 h, LPS/GAL at 6.5 h, 20 h after the last injection
[3] = n = 15, 4 mg/kg intraperitoneal at 0 h, 2 h, 4 h, 6 h and 7.5 h, LPS/GAL at 6.5 h, 40 h after the last injection
[4] = n = 15, 4 mg/kg intraperitoneal at 0 h, 2 h, 4 h, 6 h and 7.5 h, LPS/GAL at 6.5 h, 65 h after the last injection

Tyr-D-Ala-Gly-Phe-D-Leu-enkephalin [DADLE]
20%: SURVIVAL 15 Hours (percent) [1] | SURVIVAL 20 Hours (percent) [2] | SURVIVAL 40 Hours (percent) [3] | SURVIVAL 65 Hours (percent) [4]
3: SURVIVAL 15 Hours (number of mice) [1] | SURVIVAL 20 Hours (number of mice) [2] | SURVIVAL 40 Hours (number of mice) [3] | SURVIVAL 65 Hours (number of mice) [4]
not as striking: survival time (mice made septic by LPS/GAL treatment, compared to mice receiving LPS/GAL only)
